How the values were obtained:
[1] = Fluorescence response of probe to increasing hypochlorous acid concentration; settings: 10 μM probe
Description: Specifically, Compound HKOCl-3 is dissolved in 0.1 M phosphate buffer at pH 7.4 to form a 10 μM solution, with excitation and emission spectra at 490 nm and 527 nm, respectively. The 10 μM solution of compound HKOCl-3 is treated with hypochlorous acid at various concentrations.
Specifically, compound HJ-3-279 is dissolved in 0.1 M phosphate buffer at pH 7.4 to form a 10 μM solution, with excitation and emission spectra at 490 nm and 527 nm, respectively. The 10 μM solution of Compound HJ-3-279 is treated with hypochlorous acid at various concentrations.
Specifically, Compound BXY2142 is dissolved in 0.1 M phosphate buffer at pH 7.4 to form a 10 μM solution, with excitation and emission spectra at 530 nm and 557 nm, respectively. The 10 μM solution of Compound BXY2142 is treated with hypochlorous acid at various concentrations.
Specifically, compound HJ-3-259 is dissolved in 0.1 M phosphate buffer at pH 7.4 to form a 10 μM solution, with excitation and emission spectra at 562 nm and 585 nm, respectively. The 10 μM solution of Compound HJ-3-259 is treated with hypochlorous acid at various concentrations.

[2] = Reactivity of probe toward different ROS and RNS (HOCl selectivity); settings: ONOO− 10 μM
Description: (§1) The reactivity of compound HKOCl-3 is compared toward different reactive oxygen species (ROS) and reactive nitrogen species (RNS). Specifically, the 10 μM solution of compound HKOCl-3 is treated with various ROS and RNS. The concentration of highly reactive oxygen species (hydroxyl radical (^●OH), hypochlorous acid (HOCl), and peroxynitrite (ONOO^−)) is 10 μM. The concentration of ^1O2, O2^●−, ^●NO, ROO^●, TBHP and H2O2 is 100 μM.
as §1, with “HJ-3-279” for “HKOCl-3”
as §1, with “BXY2142” for “HKOCl-3”, “[…],” for “^1O2, O2^●−,”
as §1, with “HJ-3-259” for “HKOCl-3”, “with” for “toward”

[3] = Reactivity of probe toward different ROS, RNS, FeCl2, FeCl3 and TCBQ (hydroxyl radical selectivity); settings: 5 μM probe, •OH, HOCl, ONOO−, FeCl2, FeCl3, TCBQ 5 μM, other ROS/RNS 50 μM, especially TCBQ/H2O2 system
Description: (§2) The reactivity of compound HYY166 is tested toward different reactive oxygen species (ROS), reactive nitrogen species (RNS), FeCl2, FeCl3 and TCBQ. Specifically, the 5 μM solution of compound HYY166 is treated with various ROS and RNS. The concentration of highly reactive oxygen species (hydroxyl radical (^●OH), hypochlorous acid (HOCl), and peroxynitrite (ONOO^−)), FeCl2, FeCl3 and TCBQ is 5 μM. The concentration of ^1O2, O2^●−, ^●NO, ROO^●, TBHP and H2O2 is 50 μM.
as §2, with “HKOH-1” for “HYY166”, “compared” for “tested”

[4] = Fluorescence response of probe to hydroxyl radical source (Fenton reagent; TCBQ/H2O2); settings: 5 μM probe, 0.1 M phosphate buffer pH 7.4, Fenton reagent or TCBQ/H2O2 (H2O2 10:1)
Description: (§3) Specifically, compound HYY166 is dissolved in 0.1 M phosphate buffer at pH 7.4 to form a 5 μM solution, with excitation and emission spectra at 490 nm and 520 nm, respectively. The 5 μM solution of compound HYY166 is treated with hydroxyl radical generated from different hydroxyl radical source: (1) Fenton reagent ([H2O2]:[FeCl2]=10:1); (2) Tetrachloro-1,4-benzoquinone (TCBQ)/H2O2 ([H2O2]:[TCBQ]=10:1) system.
as §3, with “HKOH-1” for “HYY166”, “504” for “490”, “525” for “520”

[5] = 0.1 M phosphate buffer pH 7.4, excitation 490 nm, emission 527 nm
[6] = 10 μM probe, •OH, 1O2, O2•−, •NO, ROO•, TBHP, H2O2 100 μM, excitation 490 nm, emission 527 nm
[7] = excitation 504 nm, emission 525 nm
[8] = excitation 490 nm, emission 520 nm

## CCOC(=O)CCCN1c2cc3c(cc2C(C)CC1(C)C)C1(OC(=O)c2ccccc21)c1ccc(Oc2cc(Cl)c(O)c(Cl)c2)cc1O3 (stereo not shown) [BXY2142]
[1]; 0.1 M phosphate buffer pH 7.4, excitation 530 nm, emission 557 nm
  fluorescence intensity on treatment with hypochlorous acid at various concentrations: increases with increasing concentration of hypochlorous acid

## O=C1OC2(c3cc(Cl)c(O)cc3Oc3cc(Oc4cc(Cl)c(O)c(Cl)c4)c(Cl)cc32)c2ccccc21 (stereo not shown) [HJ-3-279]
[1]; [5]
  fluorescence intensity on treatment with hypochlorous acid at various concentrations: increases with increasing concentration of hypochlorous acid
[2]; [6]
  increase in fluorescence intensity with hypochlorous acid versus other ROS and RNS: much higher increase

## O=C1OC2(c3ccc(O)cc3Oc3cc(Oc4cc(Cl)c(O)c(Cl)c4)ccc32)c2ccccc21 (stereo not shown) [HKOCl-3]
[1]; [5]
  fluorescence intensity on treatment with hypochlorous acid at various concentrations: increases with increasing concentration of hypochlorous acid
[2]; [6]
  increase in fluorescence intensity with hypochlorous acid versus other ROS and RNS: much higher increase
[2]; 10 μM solution of BXY2142, •OH, other ROS/RNS 100 μM, excitation 530 nm, emission 557 nm
  increase in fluorescence intensity with hypochlorous acid versus other ROS and RNS: much higher increase

## O=C1OC2(c3cc(Cl)c(O)cc3Oc3cc(Oc4cc(I)c(O)c(I)c4)c(Cl)cc32)c2ccccc21 (stereo not shown) [HKOH-1]
[3]; [7]
  increase in fluorescence intensity with hydroxyl radical versus other ROS and RNS: much higher increase
[4]; [7]
  fluorescence intensity on treatment with hydroxyl radical source: increases with increasing concentration of hydroxyl radical source

## O=C1OC2(c3ccc(O)cc3Oc3cc(Oc4cc(I)c(O)c(I)c4)ccc32)c2ccccc21 (stereo not shown) [HYY166]
[3]; [8]
  increase in fluorescence intensity with hydroxyl radical versus other ROS and RNS: much higher increase
[4]; [8]
  fluorescence intensity on treatment with hydroxyl radical source: increases with increasing concentration of hydroxyl radical source
